Test results taken from patent US4508648A, “Phosphoric ester of antibiotic OA-6129” (Sanraku-Ocean Co., Ltd., priority 1981, dated 1985).
In brackets after ≈: the same amount, converted by molar mass. Where two headings read alike, the source gives them in different places.

Experiments:
[1] = Relative stability in phosphate buffer, pH 7.0 (control); assay type: physicochemical; details: 37° C., 60 minutes, drug solution 100-300 μg/ml, read-out: Relative stability: drug remaining as a percentage of initial concentration
Protocol: (§1) *A drug solution (100-300 μg/ml) (0.1 ml) and a kidney homogenate (0.1
(§2) ml) were allowed to react at 37° C. for 60 minutes and the mixture
(§3) was immediately heattreated at 100° C. for 15 seconds. After
(§4) centrifugation, the concentration of the drug remaining in the supernatan
(§5) solution was bioassayed as a percentage of initial concentration by
(§6) Comamonas terrigena B996.
(§7) An overnight culture of Comamonas terrigena B-996 on a nutrient agar slant was suspended in nutrient broth to give a cell suspension of absorbance 0.04 at 610 nm. One percent of the cell suspension in volume was inoculated into molten agar medium containing 0.8% in weight of Kyokuto powdered bouillon (Kyokuto Pharmaceutical Co.) and 1.0% in weight of Bato-agar (Difco Lab.), and 7 ml each of the inoculated agar medium was poured into a 9 cm petri dish to make a Comamonas assay plate.

[2] = test system: Pseudomonas aeruginosa IFO 3445; assay: Minimum inhibitory concentration, agar dilution technique; assay type: cell-based; details: IFO3445, beta-lactam-resistant strain, heart infusion agar, inoculum 10^6 cells/ml, read-out: Minimum Inhibitory Concentration (M.I.C.)
From the text: (§8) Minimum Inhibitory Concentration (M.I.C. in μg/ml)**
(§9) *Beta-lactam-resistant strain.
(§10) **Medium heartinfusion agar (Difco Lab.); inoculum size 10^6 cells/ml
(§11) determined by the agar dilution technique

[3] = test system: Citrobacter freundii GN346; assay: as above; assay type: cell-based; details: beta-lactam-resistant strain, heart infusion agar, inoculum 10^6 cells/ml, read-out: Minimum Inhibitory Concentration (M.I.C.)
From the text: as §8, §9, §10, §11

Escherichia coli RGN823 = assay: as above; assay type: cell-based; details: RGN823, read-out: Minimum Inhibitory Concentration (M.I.C.)
From the text: as §8, §9, §10, §11

Serratia marcescens S-18 = assay: as above; assay type: cell-based
From the text: as §8, §9, §10, §11

[4] = test system: Klebsiella pneumoniae K13; assay: as above; assay type: cell-based
From the text: as §8, §9, §10, §11

Enterobacter cloacae 45 = assay: as above; assay type: cell-based; details: beta-lactam-resistant strain, heart infusion agar, inoculum 10^6 cells/ml, read-out: Minimum Inhibitory Concentration (M.I.C.)
From the text: as §8, §9, §10, §11

[5] = test system: Enterobacter aerogenes E-19; assay: as above; assay type: cell-based; details: Klebsiella aerogenes, E19; beta-lactam-resistant strain; heart infusion agar; inoculum 10^6 cells/ml; read-out: Minimum Inhibitory Concentration (M.I.C.)
From the text: as §8, §9, §10, §11

Proteus sp. P-22 = assay: as above; assay type: cell-based; details: beta-lactam-resistant strain; heart infusion agar; inoculum 10^6 cells/ml; read-out: Minimum Inhibitory Concentration (M.I.C.)
From the text: as §8, §9, §10, §11

Serratia marcescens T55 = assay: as above; assay type: cell-based; details: beta-lactam-resistant strain, heart infusion agar, inoculum 10^6 cells/ml, read-out: Minimum Inhibitory Concentration (M.I.C.)
From the text: as §8, §9, §10, §11

[6] = test system: Pseudomonas aeruginosa NCTC 10490; assay: as above; assay type: cell-based; details: NCTC10490, beta-lactam-resistant strain, heart infusion agar, inoculum 10^6 cells/ml, read-out: Minimum Inhibitory Concentration (M.I.C.)
From the text: as §8, §9, §10, §11

Proteus vulgaris GN76 = assay: as above; assay type: cell-based; details: beta-lactam-resistant strain, heart infusion agar, inoculum 10^6 cells/ml, read-out: Minimum Inhibitory Concentration (M.I.C.)
From the text: as §8, §9, §10, §11

[7] = Relative stability in kidney homogenate of dog; assay type: in vitro ADME; details: 37° C., 60 minutes, drug solution 100-300 μg/ml, read-out: Relative stability: drug remaining as a percentage of initial concentration
Protocol: as §1, §2, §3, §4, §5, §6, §7

[8] = test system: Bacillus subtilis ATCC 6633; assay: Minimum inhibitory concentration, agar dilution technique; assay type: cell-based
From the text: as §8, §10, §11

Sarcina lutea = assay: as above; assay type: cell-based; details: Micrococcus luteus; heart infusion agar; inoculum 10^6 cells/ml; read-out: Minimum Inhibitory Concentration (M.I.C.)
From the text: as §8, §10, §11

Providencia sp. P-8 = assay: as above; assay type: cell-based; details: SP.P8, heart infusion agar, inoculum 10^6 cells/ml, read-out: Minimum Inhibitory Concentration (M.I.C.)
From the text: as §8, §10, §11

Alcaligenes faecalis A1 = assay: as above; assay type: cell-based; details: heart infusion agar, inoculum 10^6 cells/ml, read-out: Minimum Inhibitory Concentration (M.I.C.)
From the text: as §8, §10, §11

Proteus mirabilis P-6 = assay: as above; assay type: cell-based; details: P6, heart infusion agar, inoculum 10^6 cells/ml, read-out: Minimum Inhibitory Concentration (M.I.C.)
From the text: as §8, §10, §11

[9] = test system: Staphylococcus aureus 209P; assay: as above; assay type: cell-based; details: read-out: Minimum Inhibitory Concentration (M.I.C.)
From the text: as §8, §10, §11

[10] = test system: Staphylococcus aureus Smith; assay: as above; assay type: cell-based; details: read-out: Minimum Inhibitory Concentration (M.I.C.)
From the text: as §8, §10, §11

[11] = test system: Staphylococcus epidermidis; assay: as above; assay type: cell-based; details: heart infusion agar, inoculum 10^6 cells/ml, read-out: Minimum Inhibitory Concentration (M.I.C.)
From the text: as §8, §10, §11

[12] = test system: Staphylococcus aureus Russell; assay: as above; assay type: cell-based; details: heart infusion agar, inoculum 10^6 cells/ml, read-out: Minimum Inhibitory Concentration (M.I.C.)
From the text: as §8, §10, §11

[13] = test system: Comamonas terrigena B-996; assay: as above; assay type: cell-based; details: B996, heart infusion agar, inoculum 10^6 cells/ml, read-out: Minimum Inhibitory Concentration (M.I.C.)
From the text: as §8, §10, §11

Enterobacter sp. E-8 = assay: as above; assay type: cell-based; details: SP.E8, heart infusion agar, inoculum 10^6 cells/ml, read-out: Minimum Inhibitory Concentration (M.I.C.)
From the text: as §8, §10, §11

Proteus rettgeri P-6 = assay: as above; assay type: cell-based; details: Providencia rettgeri
From the text: as §8, §10, §11

Escherichia coli K-12 = assay: as above; assay type: cell-based; details: K12, heart infusion agar, inoculum 10^6 cells/ml, read-out: Minimum Inhibitory Concentration (M.I.C.)
From the text: as §8, §10, §11

[14] = Relative stability in kidney homogenate of man; assay type: in vitro ADME; details: human (man) kidney homogenate; 37° C., 60 minutes; drug solution 100-300 μg/ml; read-out: Relative stability: drug remaining as a percentage of initial concentration
Protocol: as §1, §2, §3, §4, §5, §6, §7

[15] = Relative stability in kidney homogenate of mouse; assay type: in vitro ADME; details: 37° C., 60 minutes, drug solution 100-300 μg/ml, read-out: Relative stability: drug remaining as a percentage of initial concentration
Protocol: as §1, §2, §3, §4, §5, §6, §7

[16] = ATCC6633, heart infusion agar, inoculum 10^6 cells/ml, read-out: Minimum Inhibitory Concentration (M.I.C.)
[17] = heart infusion agar, inoculum 10^6 cells/ml
[18] = S18, beta-lactam-resistant strain, heart infusion agar, inoculum 10^6 cells/ml, read-out: Minimum Inhibitory Concentration (M.I.C.)
[19] = K13, beta-lactam-resistant strain, heart infusion agar, inoculum 10^6 cells/ml, read-out: Minimum Inhibitory Concentration (M.I.C.)
[20] = P6, heart infusion agar, inoculum 10^6 cells/ml, read-out: Minimum Inhibitory Concentration (M.I.C.)

| SMILES | remaining at 1 h [1] [%] | MIC [2] [mg/L] | MIC [3] [mg/L] | MIC (Escherichia coli RGN823) [mg/L] | MIC (Enterobacter cloacae 45) [mg/L] | MIC [5] [mg/L] | MIC (Proteus sp. P-22) [mg/L] | MIC (Serratia marcescens T55) [mg/L] | MIC [6] [mg/L] | MIC (Proteus vulgaris GN76) [mg/L] | remaining at 1 h [7] [%] | MIC (Sarcina lutea) [mg/L] | MIC (Providencia sp. P-8) [mg/L] | MIC (Alcaligenes faecalis A1) [mg/L] | MIC (Proteus mirabilis P-6) [mg/L] | MIC [11] [mg/L] | MIC [12] [mg/L] | MIC [13] [mg/L] | MIC (Enterobacter sp. E-8) [mg/L] | MIC (Escherichia coli K-12) [mg/L] | also measured |
| --- | --- | --- | --- | --- | --- | --- | --- | --- | --- | --- | --- | --- | --- | --- | --- | --- | --- | --- | --- | --- | --- |
| CC(O)C1C(=O)N2C(C(=O)O)=C(SCCNC(=O)CCNC(=O)C(O)C(C)(C)COP(=O)(O)O)CC12 (centres unmarked) [Phosphoric ester of antibiotic OA-6129B] | 100 | > 25 | > 25 | 12.5 (≈ 22.6 µM) | > 25 | 25 (≈ 45.2 µM) | 25 (≈ 45.2 µM) | 25 (≈ 45.2 µM) | > 25 | 25 (≈ 45.2 µM) | 29 | > 25 | 6.25 (≈ 11.3 µM) | 6.25 (≈ 11.3 µM) | 25 (≈ 45.2 µM) | > 25 | > 25 | 0.39 (≈ 0.705 µM) | 12.5 (≈ 22.6 µM) | 12.5 (≈ 22.6 µM) | MIC (Serratia marcescens S-18; S18, read-out: Minimum Inhibitory Concentration (M.I.C.)): 12.5 mg/L (≈ 22.6 µM); MIC ([4]; K13, read-out: Minimum Inhibitory Concentration (M.I.C.)): 12.5 mg/L (≈ 22.6 µM); MIC [8, 16]: 25 mg/L (≈ 45.2 µM); MIC [9]: 12.5 mg/L (≈ 22.6 µM); MIC [10, 17]: > 25 mg/L; MIC (Proteus rettgeri P-6; P6, read-out: Minimum Inhibitory Concentration (M.I.C.)): 12.5 mg/L (≈ 22.6 µM); remaining at 1 h [14]: 72%; remaining at 1 h [15]: 42% |
| Cc1nnc(SCC2=C(C(=O)O)N3C(=O)[C@@H](NC(=O)Cn4cnnn4)[C@H]3SC2)s1 [Cefazolin] |  | > 400 | > 400 | 1.56 (≈ 3.43 µM) | > 400 | > 400 | > 400 | > 400 | > 400 | > 400 |  | 0.39 (≈ 0.858 µM) | 0.78 (≈ 1.72 µM) | 3.13 (≈ 6.89 µM) | 6.25 (≈ 13.8 µM) | 0.2 (≈ 0.44 µM) | 0.2 (≈ 0.44 µM) | 0.1 (≈ 0.22 µM) | 1.56 (≈ 3.43 µM) | 1.56 (≈ 3.43 µM) | MIC (Serratia marcescens S-18; [18]): > 400 mg/L; MIC [4, 19]: 12.5 mg/L (≈ 27.5 µM); MIC [8, 16]: 0.1 mg/L (≈ 0.22 µM); MIC [9, 17]: 0.05 mg/L (≈ 0.11 µM); MIC [10, 17]: 0.2 mg/L (≈ 0.44 µM); MIC (Proteus rettgeri P-6; [20]): 3.13 mg/L (≈ 6.89 µM) |
| CCC1C(=O)N2C(C(=O)O)=C(SCCNC(=O)CCNC(=O)C(O)C(C)(C)COP(=O)(O)O)CC12 (centres unmarked) [Phosphoric ester of antibiotic OA-6129A] | 114 | > 25 | > 25 | 3.13 (≈ 5.82 µM) | 25 (≈ 46.5 µM) | 12.5 (≈ 23.3 µM) | 25 (≈ 46.5 µM) | > 25 | > 25 | 25 (≈ 46.5 µM) | 18 | 6.25 (≈ 11.6 µM) | 6.25 (≈ 11.6 µM) | 1.56 (≈ 2.9 µM) | 25 (≈ 46.5 µM) | 6.25 (≈ 11.6 µM) | 6.25 (≈ 11.6 µM) | 0.05 (≈ 0.093 µM) | 3.13 (≈ 5.82 µM) | 3.13 (≈ 5.82 µM) | MIC (Serratia marcescens S-18; [18]): 25 mg/L (≈ 46.5 µM); MIC [4, 19]: 25 mg/L (≈ 46.5 µM); MIC ([8]; ATCC6633, read-out: Minimum Inhibitory Concentration (M.I.C.)): 3.13 mg/L (≈ 5.82 µM); MIC [9, 17]: 1.56 mg/L (≈ 2.9 µM); MIC [10]: 3.13 mg/L (≈ 5.82 µM); MIC (Proteus rettgeri P-6; [20]): 12.5 mg/L (≈ 23.3 µM); remaining at 1 h [14]: 96%; remaining at 1 h [15]: 47% |
